The record followed here is ChEMBL document CHEMBL1126075, “Chemistry and anti-HIV properties of 2'-fluoro-2',3'-dideoxyarabinofuranosylpyrimidines” (J Med Chem, 1992).

One may read the logP as the decadic logarithm of the partition coefficient of the neutral form, usually between octanol and water. Read a high logP as a more lipophilic compound. As usually defined, the EC50 is the concentration that produces a half-maximal response. Lower therefore signals a more potent agent. A word on the IC50: it is the concentration that inhibits the measured activity by half. Low values mean higher potency, high ones lower potency.

Series [1] can be described thus: Partition coefficient (logP). Type of series: physicochemical. The conditions noted are these: octanol/water.
Series [2] has as its system ATH-8 cell line. Nature of the series: Percent protection of ATH8 cells from HIV-induced cytopathic effects at a concentration of 5 uM. Type of series: functional, Homo sapiens. (Protection from cytopathic effect is a common read-out in antiviral testing.)
In the next series the test system is CCRF-CEM. Nature of the series: Effect on HIV-induced cytopathogenesis in CEM cells. The following applies: Homo sapiens. It counts as functional, cell-based.
In series [3] the test system is ATH-8 cell line. Nature of the series: Percent cytotoxicity against ATH8 cells at a concentration of 0.5 uM. Type of series: functional. The following applies: Homo sapiens.
Series [4] is described as follows: Therapeutic index (IC50/EC50) was determined. The following applies: read-out: TI.
Series [5] deals with ATH-8 cell line. Nature of the series: Percent cytotoxicity against ATH8 cells at a concentration of 0.2 uM. Type of series: functional. The conditions noted are these: Homo sapiens.
Series [6] has as its system ATH-8 cell line. Nature of the series: Percent protection of ATH8 cells from HIV-induced cytopathic effects at a concentration of 1 uM. Type of series: functional, Homo sapiens.
The test system of series [7] is ATH-8 cell line. Nature of the series: Percent cytotoxicity against ATH8 cells at a concentration of 1 uM. It counts as functional. The conditions noted are these: Homo sapiens.
Series [8] has as its system ATH-8 cell line. As to the kind of experiment: Percent protection of ATH8 cells from HIV-induced cytopathic effects at a concentration of 0.2 uM. It counts as functional, Homo sapiens.
Series [9] relates to ATH-8 cell line. Nature of the series: Percent protection of ATH8 cells from HIV-induced cytopathic effects at a concentration of 0.5 uM. Type of series: functional, Homo sapiens.
For series [10], the system named is ATH-8 cell line. As to the kind of experiment: Percent cytotoxicity against ATH8 cells at a concentration of 5 uM. Type of series: functional. The following applies: Homo sapiens.

Each structure is given as a SMILES string.

As for `O=c1ccn(C2CCC(CO)O2)c(=O)[nH]1` (stereo not given), the logP in series [1] was -1.

`O=c1[nH]c(=O)n(C2OC(CO)CC2F)cc1Cl` (stereo not given) came in with a logP in [1] of -0.28.

In series [1], `Nc1ccn([C@H]2C=C[C@@H](CO)O2)c(=O)n1` gave a logP of -1.57.

As to `Nc1nc(=O)n(C2OC(CO)CC2F)cc1F` (stereo not given), the Protection with ATH-8 cell line [2] amounted to 73%; in the series with ATH-8 cell line [6] it was 7%; with ATH-8 cell line [8] it was 0%; in the series on ATH-8 cell line [9] it was 8%. The molecule also gave an EC50 in the series on CCRF-CEM of 57.7 µM. Moreover, the IC50 in the series with CCRF-CEM is above 580 µM. The same molecule registered a cytotoxicity at 0.5 µM with ATH-8 cell line [3] of 0%. For the same molecule, the selectivity ratio in [4] is above 10. Besides, the logP in series [1] is -0.92. In addition, the cytotoxicity at 0.2 µM with ATH-8 cell line [5] worked out at 0%. Further, in the series with ATH-8 cell line [7], the cytotoxicity at 1 µM worked out at 8%. Moreover, the cytotoxicity at 5 µM with ATH-8 cell line [10] stood at 0%.

In turn, `Nc1nc(=O)n(C2OC(CO)CC2F)cc1Cl` (stereo not given) returned a log partition coefficient (logP) in [1] of -0.46.

The molecule `O=c1ccn(C2OC(CO)CC2F)c(=O)[nH]1` (stereo not given) gave a logP in series [1] of -0.87.

In the case of `Cc1cn([C@@H]2O[C@H](CO)C[C@H]2F)c(=O)[nH]c1=O`, the logP in series [1] is -0.44.

With `Nc1ccn([C@@H]2O[C@H](CO)C[C@@H]2F)c(=O)n1`, the Protection in the series with ATH-8 cell line [2] was determined as 53%; with ATH-8 cell line [6], 56%; with ATH-8 cell line [8], 3%; in the series on ATH-8 cell line [9], 25%. Moreover, the EC50 in the series with CCRF-CEM turned out to be 1.1 µM. Moreover, inhibition in the series on CCRF-CEM was half-maximal at 43 µM (IC50). The molecule also came in with a cytotoxicity at 0.5 µM in the series with ATH-8 cell line [3] of 8%. In addition, in series [4], the selectivity ratio worked out at 39. Besides, the logP in series [1] was -1.18. In addition, the cytotoxicity at 0.2 µM with ATH-8 cell line [5] came to 0%. Further, the cytotoxicity at 1 µM with ATH-8 cell line [7] was 4%. This molecule also gave a cytotoxicity at 5 µM in the series with ATH-8 cell line [10] of 1%.

For the molecule `Nc1nc(=O)n([C@@H]2CC[C@H](CO)O2)cc1F`, the Protection in the series with ATH-8 cell line [2] came to 99%; in the series on ATH-8 cell line [6], 100%; with ATH-8 cell line [8], 71%; with ATH-8 cell line [9], 96%. Also, the EC50 in the series with CCRF-CEM was 0.1 µM. Also, the IC50 in the series with CCRF-CEM is above 40 µM. Also, in the series on ATH-8 cell line [3], the cytotoxicity at 0.5 µM came to 0%. The selectivity ratio in series [4] was above 400. Also, the logP in series [1] is -1.09. The molecule further registered a cytotoxicity at 0.2 µM in the series on ATH-8 cell line [5] of 0%. In the series with ATH-8 cell line [7], this molecule displayed a cytotoxicity at 1 µM of 1%. Moreover, the cytotoxicity at 5 µM in the series on ATH-8 cell line [10] turned out to be 4%.

Molecule `O=c1ccn([C@@H]2O[C@H](CO)[C@@H](O)[C@H]2O)c(=O)[nH]1` [URIDINE] displayed a logP in series [1] of -1.94.

In [1], `O=c1[nH]c(=O)n(C2OC(CO)CC2F)cc1F` (stereo not given) yielded a logP of -0.72.

In the case of `Nc1ccn([C@H]2CC[C@@H](CO)O2)c(=O)n1` [ZALCITABINE], the Protection with ATH-8 cell line [2] is recorded as 88%; in the series with ATH-8 cell line [6] it was 100%; in the series with ATH-8 cell line [8], 93%; in the series with ATH-8 cell line [9], 100%. In the series with CCRF-CEM, this molecule gave an EC50 of 0.3 µM. The same molecule showed an IC50 in the series with CCRF-CEM of 120 µM. For the same molecule, in the series with ATH-8 cell line [3], the cytotoxicity at 0.5 µM was 0%. Also, the selectivity ratio in [4] came to 380. The cytotoxicity at 0.2 µM in the series with ATH-8 cell line [5] is 6%. The cytotoxicity at 1 µM with ATH-8 cell line [7] was determined as 9%. In the series with ATH-8 cell line [10], this molecule registered a cytotoxicity at 5 µM of 1%.
